Test results: PMC6591251, “Discovery of potent necroptosis inhibitors targeting RIPK1 kinase activity for the treatment of inflammatory disorder and cancer metastasis” (Cell Death & Disease, 2019)

Key:
[1] = system: RFP-LL/2 cells through CD31+ endothelial cell monolayer; experiment: Transendothelial migration assay; type: cell-based, mouse; settings: 2 h pretreatment, 20 h
Experimental: (§1) Studies have shown that RIPK1 kinase activity is involved in the promotion of tumor metastasis through death receptor 6-dependent necroptosis of endothelial cells[22] or VEGF-dependent activation of vascular permeability. We thus evaluated the therapeutic effect of PK68 on lung metastasis of mouse melanoma B16-F10 cells in vivo. […] After 2 weeks, the metastasis of B16-F10 cells was measured by histological analysis and assessed as the number of metastasis nodules in the lung. […] Two weeks after intravenous injection of RFP-LL/2 cells, RFP^+ LL/2 cells were isolated from the tumor tissues by flow cytometer sorting and no signal of phosphorylated RIPK1 was detected in these tumors cells (Supplementary Fig. 22). Six hours after intravenous injection of RFP-LL/2 cells into C57BL/6 mice, the RFP-LL/2 cells have extravasated through blood vessels into the lung (Supplementary Fig. 23). […] Further, we evaluated the effect of PK68 on the tumor cell transmigration across the cultured endothelium. […]
Primary CD31^+ endothelial cells isolated from lungs by using CD31 beads (Miltenyi Biotec) were used for the transendothelial migration assay as previously described. […] Then fluorescence picture of transmigrated RFP-LL/2 cells were taken at ×40 magnification under the microscope (Nikon), and the intensity of fluorescence was analyzed by Image J software. […]

CK1a1 = biological target: T1, CK1a1 (Homo sapiens, UniProt P48729); experiment: RBC kinase panel; type: biochemical; settings: ATP 10 μM, Data1, Data2
T1 construct: purchased Reaction Biology Corporation
Experimental: (§2) PK68 was tested at 1 μM in duplicate against a panel of 369 human kinases at Reaction Biology Corporation. Results are viewed in the human kinome phylogenetic tree.
(§3) ^a Compound PK68 was tested at 1 μM in duplicate against 369 kinases using the RBC kinase panel service of Reaction Biology Corporation. All the ATP concentrations used were 10 μM. […] Full protocol details are available at http://www.reactionbiology.com.

PKD2/PRKD2 = biological target: T2, PKD2/PRKD2 (Homo sapiens, UniProt Q9BZL6); experiment: RBC kinase panel; type: biochemical; settings: ATP 10 μM, Data1, Data2
T2 construct: purchased Reaction Biology Corporation
Experimental: as §2, §3

COT1/MAP3K8 = biological target: T3, COT1/MAP3K8 (Homo sapiens, UniProt P41279); experiment: RBC kinase panel; type: biochemical; settings: ATP 10 μM, Data1, Data2
T3 construct: purchased Reaction Biology Corporation
Experimental: as §2, §3

EPHA4 = biological target: T4, EPHA4 (Homo sapiens, UniProt P54764); experiment: RBC kinase panel; type: biochemical; settings: ATP 10 μM, Data1, Data2
T4 construct: purchased Reaction Biology Corporation
Experimental: as §2, §3

CDK2/cyclin E = biological target: T5, CDK2/cyclin E (Homo sapiens, UniProt P24941); experiment: RBC kinase panel; type: biochemical; settings: ATP 10 μM, Data1, Data2
T5 construct: purchased Reaction Biology Corporation
Experimental: as §2, §3

TAOK2/TAO1 = biological target: T6, TAOK2/TAO1 (Homo sapiens, UniProt Q9UL54); experiment: RBC kinase panel; type: biochemical; settings: ATP 10 μM, Data1, Data2
T6 construct: purchased Reaction Biology Corporation
Experimental: as §2, §3

IKKe/IKBKE = biological target: T7, IKKe/IKBKE (Homo sapiens, UniProt Q14164); experiment: RBC kinase panel; type: biochemical; settings: ATP 10 μM, Data1, Data2
T7 construct: purchased Reaction Biology Corporation
Experimental: as §2, §3

BRSK2 = biological target: T8, BRSK2 (Homo sapiens, UniProt Q8IWQ3); experiment: RBC kinase panel; type: biochemical; settings: ATP 10 μM, Data1, Data2
T8 construct: purchased Reaction Biology Corporation
Experimental: as §2, §3

ROCK2 = biological target: T9, ROCK2 (Homo sapiens, UniProt O75116); experiment: RBC kinase panel; type: biochemical; settings: ATP 10 μM, Data1, Data2
T9 construct: purchased Reaction Biology Corporation
Experimental: as §2, §3

SNRK = biological target: T10, SNRK (Homo sapiens, UniProt Q9NRH2); experiment: RBC kinase panel; type: biochemical; settings: ATP 10 μM, Data1, Data2
T10 construct: purchased Reaction Biology Corporation
Experimental: as §2, §3

TYRO3/SKY = biological target: T11, TYRO3/SKY (Homo sapiens, UniProt Q06418); experiment: RBC kinase panel; type: biochemical; settings: ATP 10 μM, Data1, Data2
T11 construct: purchased Reaction Biology Corporation
Experimental: as §2, §3

TTBK2 = biological target: T12, TTBK2 (Homo sapiens, UniProt Q6IQ55); experiment: RBC kinase panel; type: biochemical; settings: ATP 10 μM, Data1, Data2
T12 construct: purchased Reaction Biology Corporation
Experimental: as §2, §3

B16-F10 cells = experiment: Lung metastasis model of melanoma cells; type: in vivo, C57BL/6 mice; settings: 5 mg/kg ip pre-treatment; 14 days
Experimental: as §1, with “22).” for “22). Six hours after intravenous injection of RFP-LL/2 cells into C57BL/6 mice, the RFP-LL/2 cells have extravasated through blood vessels into the lung (Supplementary Fig. 23).”
C57BL/6 mice bearing B16-F10 cells (a, b) or RFP-labeled LL/2 cells (c, d) were treated with vehicle, PK68 (5 mg/kg) or Nec-1s (5 mg/kg) as described in the Materials and methods. a, b Tumor metastasis of B16-F10 was measured by the numbers of metastasis nodules and histological analysis. […] The numbers of metastasis nodules on lung surfaces (b) in the metastasis model of B16-F10 were counted with the microscope. c, d Tumor metastasis of RFP-labeled LL/2 was calculated by RFP […] intensity. […]

T4 sequence (P54764 20-986): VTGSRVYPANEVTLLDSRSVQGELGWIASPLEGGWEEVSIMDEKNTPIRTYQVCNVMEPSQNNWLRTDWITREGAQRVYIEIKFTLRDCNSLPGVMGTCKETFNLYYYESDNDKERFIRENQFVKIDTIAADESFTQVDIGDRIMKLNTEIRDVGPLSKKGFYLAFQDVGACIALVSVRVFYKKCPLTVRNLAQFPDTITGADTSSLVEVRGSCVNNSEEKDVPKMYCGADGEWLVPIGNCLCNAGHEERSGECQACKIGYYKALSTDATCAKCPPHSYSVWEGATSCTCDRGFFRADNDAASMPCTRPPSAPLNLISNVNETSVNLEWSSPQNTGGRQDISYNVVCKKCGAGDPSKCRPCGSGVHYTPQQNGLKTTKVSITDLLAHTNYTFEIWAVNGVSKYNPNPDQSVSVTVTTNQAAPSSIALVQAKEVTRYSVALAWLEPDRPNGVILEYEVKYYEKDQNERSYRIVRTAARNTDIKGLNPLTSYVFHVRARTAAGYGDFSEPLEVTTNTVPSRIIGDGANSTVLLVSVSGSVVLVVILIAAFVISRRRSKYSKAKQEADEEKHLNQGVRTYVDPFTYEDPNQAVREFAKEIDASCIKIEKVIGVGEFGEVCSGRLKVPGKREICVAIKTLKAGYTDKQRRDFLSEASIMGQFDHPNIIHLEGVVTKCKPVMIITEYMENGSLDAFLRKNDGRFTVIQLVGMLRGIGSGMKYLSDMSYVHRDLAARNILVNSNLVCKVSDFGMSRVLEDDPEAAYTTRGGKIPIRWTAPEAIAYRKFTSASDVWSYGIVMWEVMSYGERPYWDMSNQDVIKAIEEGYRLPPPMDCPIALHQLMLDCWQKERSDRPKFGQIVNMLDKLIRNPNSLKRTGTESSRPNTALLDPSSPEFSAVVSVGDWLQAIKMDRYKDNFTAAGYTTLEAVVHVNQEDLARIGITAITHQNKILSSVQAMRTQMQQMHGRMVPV
T10 sequence (Q9NRH2 whole entry): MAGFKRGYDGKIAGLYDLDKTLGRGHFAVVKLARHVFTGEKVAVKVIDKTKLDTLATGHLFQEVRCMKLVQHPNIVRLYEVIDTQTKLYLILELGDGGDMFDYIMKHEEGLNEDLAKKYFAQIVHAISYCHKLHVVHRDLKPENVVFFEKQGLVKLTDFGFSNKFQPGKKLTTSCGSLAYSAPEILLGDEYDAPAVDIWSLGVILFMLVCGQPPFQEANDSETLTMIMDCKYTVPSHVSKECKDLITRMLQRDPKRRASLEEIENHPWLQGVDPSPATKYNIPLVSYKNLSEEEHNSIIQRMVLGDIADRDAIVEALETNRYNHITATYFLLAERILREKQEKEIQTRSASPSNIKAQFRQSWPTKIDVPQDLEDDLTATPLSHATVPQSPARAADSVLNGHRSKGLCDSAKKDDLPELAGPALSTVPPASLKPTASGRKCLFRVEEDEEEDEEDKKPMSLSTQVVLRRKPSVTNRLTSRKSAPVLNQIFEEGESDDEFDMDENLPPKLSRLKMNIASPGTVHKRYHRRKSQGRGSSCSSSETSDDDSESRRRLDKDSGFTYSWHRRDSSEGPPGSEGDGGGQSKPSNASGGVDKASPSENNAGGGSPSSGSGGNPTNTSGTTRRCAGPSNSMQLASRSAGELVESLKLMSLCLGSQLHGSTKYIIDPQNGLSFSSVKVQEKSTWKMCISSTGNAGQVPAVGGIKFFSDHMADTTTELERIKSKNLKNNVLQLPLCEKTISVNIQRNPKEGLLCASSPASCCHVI
T6 sequence (Q9UL54 whole entry): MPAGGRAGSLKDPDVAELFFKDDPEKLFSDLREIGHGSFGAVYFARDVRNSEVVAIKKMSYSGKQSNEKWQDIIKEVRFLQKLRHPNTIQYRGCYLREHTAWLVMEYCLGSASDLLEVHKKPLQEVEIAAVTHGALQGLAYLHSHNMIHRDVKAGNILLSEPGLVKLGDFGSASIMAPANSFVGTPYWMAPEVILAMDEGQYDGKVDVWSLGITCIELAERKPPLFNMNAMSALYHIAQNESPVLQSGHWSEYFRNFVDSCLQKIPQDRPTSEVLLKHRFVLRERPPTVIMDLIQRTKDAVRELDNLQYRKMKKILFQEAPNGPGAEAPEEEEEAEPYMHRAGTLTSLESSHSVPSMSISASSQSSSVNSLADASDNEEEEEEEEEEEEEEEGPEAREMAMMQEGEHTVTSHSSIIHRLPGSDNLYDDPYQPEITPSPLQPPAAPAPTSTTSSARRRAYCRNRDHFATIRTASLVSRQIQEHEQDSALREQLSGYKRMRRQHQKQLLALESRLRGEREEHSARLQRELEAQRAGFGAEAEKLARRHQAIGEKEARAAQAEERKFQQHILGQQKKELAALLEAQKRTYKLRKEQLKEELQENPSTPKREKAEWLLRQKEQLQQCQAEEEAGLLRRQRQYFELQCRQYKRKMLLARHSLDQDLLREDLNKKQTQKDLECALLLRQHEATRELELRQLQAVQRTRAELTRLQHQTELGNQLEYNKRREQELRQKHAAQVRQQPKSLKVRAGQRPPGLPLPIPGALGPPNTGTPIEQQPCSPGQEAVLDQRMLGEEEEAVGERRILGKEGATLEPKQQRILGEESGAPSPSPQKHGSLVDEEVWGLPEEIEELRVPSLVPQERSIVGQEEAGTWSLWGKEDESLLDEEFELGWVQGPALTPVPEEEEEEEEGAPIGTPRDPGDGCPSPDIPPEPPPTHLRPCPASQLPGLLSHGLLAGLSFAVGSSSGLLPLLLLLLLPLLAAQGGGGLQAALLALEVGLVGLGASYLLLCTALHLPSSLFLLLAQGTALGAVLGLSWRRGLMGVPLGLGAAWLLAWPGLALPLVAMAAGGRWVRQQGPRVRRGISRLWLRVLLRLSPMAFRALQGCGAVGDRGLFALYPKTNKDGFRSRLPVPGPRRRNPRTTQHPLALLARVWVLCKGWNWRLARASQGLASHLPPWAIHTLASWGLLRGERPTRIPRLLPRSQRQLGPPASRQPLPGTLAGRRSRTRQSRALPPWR
T11 sequence (Q06418 41-890): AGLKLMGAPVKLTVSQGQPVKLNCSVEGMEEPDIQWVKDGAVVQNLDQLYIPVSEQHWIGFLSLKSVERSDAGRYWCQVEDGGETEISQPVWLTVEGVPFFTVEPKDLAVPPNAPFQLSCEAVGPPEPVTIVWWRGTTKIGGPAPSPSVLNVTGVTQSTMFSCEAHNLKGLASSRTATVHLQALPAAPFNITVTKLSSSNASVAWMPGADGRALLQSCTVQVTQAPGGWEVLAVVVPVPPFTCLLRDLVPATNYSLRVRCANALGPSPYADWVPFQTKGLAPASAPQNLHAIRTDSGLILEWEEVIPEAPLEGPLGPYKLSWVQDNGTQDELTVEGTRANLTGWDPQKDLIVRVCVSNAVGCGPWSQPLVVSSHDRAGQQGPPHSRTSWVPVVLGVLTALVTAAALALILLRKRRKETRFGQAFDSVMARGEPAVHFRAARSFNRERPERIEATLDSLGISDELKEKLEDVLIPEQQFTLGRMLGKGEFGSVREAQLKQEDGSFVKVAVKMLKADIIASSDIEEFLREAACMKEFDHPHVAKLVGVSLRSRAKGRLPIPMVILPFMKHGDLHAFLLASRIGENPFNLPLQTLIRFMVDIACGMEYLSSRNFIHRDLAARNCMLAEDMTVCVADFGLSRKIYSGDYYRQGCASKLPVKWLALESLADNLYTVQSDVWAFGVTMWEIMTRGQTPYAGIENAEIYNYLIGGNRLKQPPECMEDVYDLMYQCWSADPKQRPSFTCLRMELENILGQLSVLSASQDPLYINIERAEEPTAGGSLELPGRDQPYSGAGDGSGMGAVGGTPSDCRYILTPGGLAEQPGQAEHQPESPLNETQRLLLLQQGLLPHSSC
T1 sequence (P48729 whole entry): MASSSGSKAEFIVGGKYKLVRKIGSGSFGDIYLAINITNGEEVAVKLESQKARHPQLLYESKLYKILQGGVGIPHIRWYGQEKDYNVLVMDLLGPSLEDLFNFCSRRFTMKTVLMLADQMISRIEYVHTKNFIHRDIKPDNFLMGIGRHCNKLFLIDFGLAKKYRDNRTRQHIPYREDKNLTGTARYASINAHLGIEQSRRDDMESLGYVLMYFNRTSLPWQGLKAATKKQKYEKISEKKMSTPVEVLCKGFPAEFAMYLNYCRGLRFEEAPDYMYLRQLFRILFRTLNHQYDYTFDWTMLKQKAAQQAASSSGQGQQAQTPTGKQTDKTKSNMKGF
T7 sequence (Q14164 whole entry): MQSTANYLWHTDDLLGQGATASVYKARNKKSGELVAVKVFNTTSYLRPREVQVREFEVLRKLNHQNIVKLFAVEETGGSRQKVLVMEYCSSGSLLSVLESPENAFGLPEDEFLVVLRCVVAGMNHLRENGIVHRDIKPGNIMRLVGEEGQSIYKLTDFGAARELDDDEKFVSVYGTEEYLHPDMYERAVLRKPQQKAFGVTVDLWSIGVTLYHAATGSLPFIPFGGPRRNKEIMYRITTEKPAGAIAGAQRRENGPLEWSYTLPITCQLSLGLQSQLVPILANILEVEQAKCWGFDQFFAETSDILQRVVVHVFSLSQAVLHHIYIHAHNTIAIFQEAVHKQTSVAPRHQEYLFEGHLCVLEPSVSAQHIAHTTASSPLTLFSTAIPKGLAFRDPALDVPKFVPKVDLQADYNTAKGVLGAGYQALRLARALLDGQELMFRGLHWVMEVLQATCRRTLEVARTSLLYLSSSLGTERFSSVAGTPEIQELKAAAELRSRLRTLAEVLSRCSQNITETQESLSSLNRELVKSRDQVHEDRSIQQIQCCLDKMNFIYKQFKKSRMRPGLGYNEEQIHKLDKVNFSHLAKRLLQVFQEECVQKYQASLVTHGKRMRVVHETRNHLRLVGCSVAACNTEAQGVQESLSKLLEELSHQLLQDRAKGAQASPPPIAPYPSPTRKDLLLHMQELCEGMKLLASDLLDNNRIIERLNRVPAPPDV

## CC(=O)Nc1nc2ccc(-c3cnc(C)c(NC(=O)OC4CCCCC4)c3)cc2s1 [PK68, cyclohexyl (5-(2-acetamidobenzo[d]thiazol-6-yl)-2-methylpyridin-3-yl)carbamate]
[1]
  transmigration of RFP-LL/2 cells through the endothelial cell monolayer: attenuated
CK1a1; 1 μM
  Activity%: 94.49%
CK1a1
  activity at 1 µM: 97%
PKD2/PRKD2; 1 μM
  Activity%: 90.63%
PKD2/PRKD2
  activity at 1 µM: 93.9%
COT1/MAP3K8; 1 μM
  Activity%: 94.93%
COT1/MAP3K8
  activity at 1 µM: 95.2%
EPHA4; 1 μM
  Activity%: 92.78%
EPHA4
  activity at 1 µM: 92.8%
CDK2/cyclin E; 1 μM
  Activity%: 91.99%
CDK2/cyclin E
  activity at 1 µM: 93.5%
TAOK2/TAO1; 1 μM
  Activity%: 81.88%
TAOK2/TAO1
  activity at 1 µM: 82.6%
IKKe/IKBKE; 1 μM
  Activity%: 92.74%
IKKe/IKBKE
  activity at 1 µM: 98.2%
BRSK2; 1 μM
  Activity%: 98.88%
BRSK2
  activity at 1 µM: 100%
ROCK2; 1 μM
  Activity%: 95.49%
ROCK2
  activity at 1 µM: 95.5%
SNRK; 1 μM
  Activity%: 90.23%
SNRK
  activity at 1 µM: 94.9%
TYRO3/SKY; 1 μM
  Activity%: 97.95%
TYRO3/SKY
  activity at 1 µM: 99.6%
TTBK2; 1 μM
  Activity%: 98.08%
TTBK2
  activity at 1 µM: 98.4%
B16-F10 cells
  number of pulmonary metastasis nodules: significantly reduced
